Consider 3 compounds from ChEMBL document CHEMBL1132040, “Bioreductively-activated prodrugs for targeting hypoxic tissues: elimination of aspirin from 2-nitroimidazole derivatives” (Bioorg Med Chem Lett, 1999).

Holding throughout (format): ADME
A short description of data set [1]: Half life period at pH 7.4 was determined.
A short description of data set [2]: Half life period at pH 9.1 was determined.
The nature of data set [3]: Reductive elimination of leaving group was determined at pH 7.4; expressed as loss of parent.

Each structure is given as a SMILES string.

As to `Cn1c(COC(=O)c2ccccc2O)cnc1[N+](=O)[O-]`, the figures for the T1/2 in data set [1] and in data set [2] were ~ 70 ms and ~ 250 ms, respectively. Moreover, in data set [3], the Activity is 0.21 µM/J.

On to `CC(=O)Oc1ccccc1C(=O)OCc1cnc([N+](=O)[O-])n1C`, for which, in data set [2], the T1/2 is ~ 30 ms. Further, in data set [3], the Activity turned out to be 0.19 µM/J.

With `Cn1c(CBr)cnc1[N+](=O)[O-]`, the T1/2 in data set [1] is given as ~ 0.3 ms. Further, the Activity in data set [3] turned out to be 0.68 µM/J.
